Experiment [1] deals with GtHα mRNA in grass carp pituitary cells. Put plainly: Signal transduction: GtHα mRNA expression with inhibitors in pituitary cells. The experiment is classed as cell-based.
Experiment [2] concerns LHβ mRNA in grass carp pituitary cells. The experiment can be described thus: Signal transduction: LHβ mRNA expression with inhibitors in pituitary cells. The format is cell-based.
Experiment [3] has as its system grass carp pituitary cells. Put plainly: Signal transduction: LH release with inhibitors in pituitary cells. The format is cell-based.
Experiment [4] has as its system PrRP-Rs mRNA in grass carp brain cells. Put plainly: PrRP-Rs mRNA expression in primary brain cells. The experiment is classed as cell-based. The settings on record: E2 1 μM, 24 h.
Description: (§1) In brief, 13-14 grass carp brains were obtained and separated into the required brain areas including telencephalon, hypothalamus, and optic tectum, which were cut into 0.8 mm tissue fragments using […] tissue chopper (Cavey laboratory). After washing with Minimum Essential Medium (MEM, Gibco) three times, the brain fragments were incubated with 6 mg/ml trypsin (Sigma) dissolved in the medium under the conditions of 28°C, 48 rpm for 30 min. […] The brain fragments were filtered using a 30 μm filter screen and cultured into a 24-well cell culture plate under 28°C, 5% CO2 concentration. […] After another 2 days of incubation, a single-dose E2 treatment (1 μM) was performed on the cells. […] The β-actin mRNA was used as an internal parameter to eliminate random error. Therefore, genes mRNA data as well as LH release data were easily converted as a percentage of the mean value (as “% Ctrl”). The data presented (as Mean ± SEM) collected results from 4-8 parallel group experiments and analyzed with ANOVA.
The subject of experiment [5] is PrRPs, GnRH2 and GnRH3 mRNA in grass carp brain cells. Put plainly: PrRPs and GnRH mRNA expression in primary brain cells. The format is cell-based. The settings on record: E2 1 μM, 24 h.
Description: as §1
The next experiment relates to prepubertal zebrafish. The arrangement: method as in PMID 22689988. The settings on record: cited from earlier work.
Another experiment concerns the target T1, PrRP-R1b (Ctenopharyngodon idella, UniProt A0A4P9NKE2).
T1 sequence (A0A4P9NKE2 1-377): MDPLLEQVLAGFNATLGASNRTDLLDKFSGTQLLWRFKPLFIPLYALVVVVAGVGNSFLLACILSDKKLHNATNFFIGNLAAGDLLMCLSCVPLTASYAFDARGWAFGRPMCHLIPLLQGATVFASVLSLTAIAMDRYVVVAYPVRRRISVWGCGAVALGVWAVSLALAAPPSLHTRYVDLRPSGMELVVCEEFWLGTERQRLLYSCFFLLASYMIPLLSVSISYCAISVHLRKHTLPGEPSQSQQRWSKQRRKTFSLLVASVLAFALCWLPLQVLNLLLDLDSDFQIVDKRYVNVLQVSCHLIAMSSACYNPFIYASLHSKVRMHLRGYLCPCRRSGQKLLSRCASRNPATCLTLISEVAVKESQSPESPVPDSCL
The experiment can be described thus: cell-based. The arrangement: species or system grass carp (Ctenopharyngodon idellus).

For another experiment, the target named is T2, PrRP-R1a (Ctenopharyngodon idella, UniProt A0A4P9NKE7).
T2 sequence (A0A4P9NKE7 1-371): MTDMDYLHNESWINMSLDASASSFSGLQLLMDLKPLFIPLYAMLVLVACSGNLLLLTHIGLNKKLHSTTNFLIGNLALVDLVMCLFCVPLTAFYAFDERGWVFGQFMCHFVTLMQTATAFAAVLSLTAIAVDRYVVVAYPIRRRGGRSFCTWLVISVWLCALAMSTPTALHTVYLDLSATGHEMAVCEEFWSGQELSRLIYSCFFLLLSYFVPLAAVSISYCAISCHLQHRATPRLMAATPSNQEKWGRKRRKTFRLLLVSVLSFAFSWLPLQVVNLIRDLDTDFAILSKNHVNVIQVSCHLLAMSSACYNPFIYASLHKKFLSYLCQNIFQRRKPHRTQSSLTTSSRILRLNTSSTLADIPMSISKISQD
Put plainly: cell-based. More on the design: species or system grass carp (Ctenopharyngodon idellus).

The target of another experiment is T3, hPrRPR (Homo sapiens, UniProt P49683).
T3 construct: the full-length open reading frame (ORF) of human PrRP receptor (hPrRPR); expressed in transfected cells; host or cells: HEK-293T
T3 sequence (P49683 1-370): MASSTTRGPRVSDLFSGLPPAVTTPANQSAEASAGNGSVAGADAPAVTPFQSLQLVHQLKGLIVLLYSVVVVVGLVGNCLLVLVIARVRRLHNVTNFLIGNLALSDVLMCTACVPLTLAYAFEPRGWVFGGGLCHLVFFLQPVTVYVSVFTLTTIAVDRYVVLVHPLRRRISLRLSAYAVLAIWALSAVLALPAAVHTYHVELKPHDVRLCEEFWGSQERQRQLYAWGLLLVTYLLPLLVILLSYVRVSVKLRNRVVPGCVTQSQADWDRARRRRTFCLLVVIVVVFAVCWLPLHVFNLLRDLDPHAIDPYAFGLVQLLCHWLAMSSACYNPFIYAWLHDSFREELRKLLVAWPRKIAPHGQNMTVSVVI
The experiment can be described thus: NFAT-luc reporter assay, functional expression of hPrRPR in HEK-293T cells. The experiment is classed as cell-based. In general terms: A reporter such as luciferase makes a cellular process visible.

The next experiment concerns the target T4, PrRP-R2a (Ctenopharyngodon idella, UniProt A0A4V1HW94).
T4 sequence (A0A4V1HW94 1-370): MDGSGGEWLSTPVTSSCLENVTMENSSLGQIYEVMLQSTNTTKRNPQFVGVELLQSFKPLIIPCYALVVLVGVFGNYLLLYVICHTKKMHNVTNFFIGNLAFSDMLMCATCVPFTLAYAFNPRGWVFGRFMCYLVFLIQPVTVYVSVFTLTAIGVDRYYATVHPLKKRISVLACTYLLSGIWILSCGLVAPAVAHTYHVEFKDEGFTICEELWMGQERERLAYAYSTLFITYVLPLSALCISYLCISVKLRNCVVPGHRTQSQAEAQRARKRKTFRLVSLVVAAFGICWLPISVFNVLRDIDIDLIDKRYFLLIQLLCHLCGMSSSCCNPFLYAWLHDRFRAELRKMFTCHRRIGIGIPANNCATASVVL
The experiment can be described thus: cell-based. More on the design: species or system grass carp (Ctenopharyngodon idellus).

Where [6] appears, read: sheet prrp1, block PKA, PrRP1 1 μM, MDL12330A 20 μM, H89 20 μM, 24 h, mean.
Where [7] appears, read: sheet prrp2, block r2-8, PrRP2 1 μM, MDL12330A 20 μM, H89 20 μM, 24 h, mean.
Setting [8] is: PrRP1 or PrRP2 1 μM, MDL12330A 20 μM, H89 20 μM, U73122 10 μM, GF109203X 20 μM, 2-APB 100 μM, nifedipine 10 μM, calmidazolium 1 μM, KN62 5 μM.
Setting [9] is: sheet prrp1, block r21-32, PrRP1 1 μM, U73122 10 μM, 2-APB 100 μM, KN62 5 μM, nifedipine 10 μM, calmidazolium 1 μM, 24 h, mean.
Setting [10] is: sheet prrp2, block r25-30, PrRP2 1 μM, CMZ 1 μM, KN62 5 μM, 24 h, mean.
The mark [11] stands for this setting: sheet prrp1, block Nifedipine, CMZ, KN62 (r33-40), PrRP1 1 μM, nifedipine 10 μM, calmidazolium 1 μM, KN62 5 μM, 24 h, mean.
[12] abbreviates: sheet prrp1, block r21-30, PrRP1 1 μM, U73122 10 μM, 2-APB 100 μM, KN62 5 μM, nifedipine 10 μM, 24 h, mean.
[13] abbreviates: sheet prrp2, block r27-32, PrRP2 1 μM, CMZ 1 μM, KN62 5 μM, 24 h, mean.
[14] abbreviates: sheet prrp1, block PKC (r14-19), PrRP1 1 μM, U73122 10 μM, GF109203X 20 μM, 24 h, mean.
Where [15] appears, read: sheet prrp2, block r10-15, PrRP2 1 μM, U73122 10 μM, GF109203X 20 μM, 24 h, mean.
Where [16] appears, read: HEK-293T, NFAT-luc reporter, 24 h, 37°C, GraphPad Prism 7, read-out: EC50, hPrRPR.

Where two headings read alike, the source gives them in different places. Ends that are not written are not given here.

The text below walks through data of paper PMC8595397, “Reproductive Regulation of PrRPs in Teleost: The Link Between Feeding and Reproduction” (Frontiers in Endocrinology, 2021).

Regarding `NCCOB(c1ccccc1)c1ccccc1` [2-APB], in experiment [1], the “GtHα mRNA expression” value came to 30.7224 % Ctrl. Also, the “LHβ mRNA expression” value in [2] is listed as 7.49 % Ctrl. Further, the “effect on PrRPs-induced LH secretion and mRNA expression (in words)” value (“effect” for short) in experiment [3] was “could also block PrRPs-induced LH secretion and mRNA expression”.

For the compound `C[C@]12CC[C@@H]3c4ccc(O)cc4CC[C@H]3[C@@H]1CC[C@@H]2O` [E2, seventeen β-estradiol], the “four PrRP-Rs mRNA expression (in words)” value in experiment [4] was “significantly induced”. Also, in experiment [4] (mean), the “prrp1a mRNA expression (CTR = 1)” value is 2.26, the “prrp1b mRNA expression (CTR = 1)” value came to 2.14, the “prrp2a mRNA expression (CTR = 1)” value is given as 1.37 and the “prrp2b mRNA expression (CTR = 1)” value stood at 2.25. In experiment [5], the “GnRH3 mRNA expression (in words)” value was “significantly induce” and the “PrRP1 mRNA expression (in words)” value is listed as “significantly induce”. Besides, in [5] (mean), the “gnrh3 mRNA expression (CTR = 1)” value was found to be 2.33 and the “prrp1 mRNA expression (CTR = 1)” value is given as 1.32. Moreover, the “expression of key genes involved in reproduction (GnRH3, Kiss2, and Tac3) (in words)” value in the experiment with prepubertal zebrafish is “enhanced the expression of the key genes involved in reproduction”.

`CN(C)CCCn1cc(C2=C(c3c[nH]c4ccccc34)C(=O)NC2=O)c2ccccc21` [GF109203X]: in [1], the “GtHα mRNA expression” value amounted to 66.101 % Ctrl. For the same compound, in [2], the “LHβ mRNA expression” value is 101.639 % Ctrl. In experiment [3], the “effect” value is “could also block PrRPs-induced LH secretion and mRNA expression”.

For `O=S(=O)(NCCNC/C=C/c1ccc(Br)cc1)c1cccc2cnccc12` [H89], the “GtHα mRNA expression” value in experiment [1] (setting [6]) and in experiment [1] (setting [7]) was 38.3512 % Ctrl each time. Also, the “LHβ mRNA expression” value in experiment [2] (setting [6]) stood at 92.1677 % Ctrl; in [2] (setting [7]), 65.1638 % Ctrl. The “effect” value in experiment [3] (setting [8]) is “could be blocked by co-treatment”.

Take `CN([C@@H](Cc1ccc(OS(=O)(=O)c2cccc3cnccc23)cc1)C(=O)N1CCN(c2ccccc2)CC1)S(=O)(=O)c1cccc2cnccc12` [KN62]: the “GtHα mRNA expression” value in experiment [1] (setting [9]) and in [1] (setting [10]) was 119.519 % Ctrl throughout. Besides, the “LHβ mRNA expression” value in experiment [2] (setting [11]), in experiment [2] (setting [12]) and in experiment [2] (setting [13]) was 112.35 % Ctrl each time. Further, in [3] (setting [8]), the “effect” value is “could also block PrRPs-induced LH secretion and mRNA expression”.

As to `Cl.c1ccc(C2CCCC2NC2=NCCCCCCCCCCC2)cc1` (centres unmarked) [MDL12330A], the “GtHα mRNA expression” value in experiment [1] (setting [6]) and in experiment [1] (setting [7]) was 33.647 % Ctrl each time. Further, the “LHβ mRNA expression” value in experiment [2] (setting [6]) is on record as 19.5731 % Ctrl; in [2] (setting [7]) it was 52.4857 % Ctrl. The “effect” value in experiment [3] (setting [8]) is reported as “could be blocked by co-treatment”.

Consider `COc1ccc2c(c1)CC[C@@H]1[C@@H]2CC[C@]2(C)[C@@H](NCCCCCCN3C(=O)C=CC3=O)CC[C@@H]12` [U73122], for which the “GtHα mRNA expression” value in experiment [1] (setting [14]), in experiment [1] (setting [9]) and in [1] (setting [15]) was 19.2973 % Ctrl in each case. For the same compound, the “LHβ mRNA expression” value in experiment [2] (setting [14]), in experiment [2] (setting [12]) and in experiment [2] (setting [15]) was 16.4413 % Ctrl in each case. Also, the “effect” value in experiment [3] (setting [8]) was “could also block PrRPs-induced LH secretion and mRNA expression”.

In the case of `Clc1ccc(C(c2ccc(Cl)cc2)n2cc[n+](CC(OCc3ccc(Cl)cc3Cl)c3ccc(Cl)cc3Cl)c2)cc1` (centres unmarked) [calmidazolium], the “GtHα mRNA expression” value in experiment [1] (setting [9]) amounted to 36.6785 % Ctrl; in experiment [1] (setting [10]), 48.844 % Ctrl. Moreover, the “LHβ mRNA expression” value in experiment [2] (setting [11]) and in experiment [2] (setting [13]) was 13.098 % Ctrl throughout. Besides, in [3] (setting [8]), the “effect” value is “could also block PrRPs-induced LH secretion and mRNA expression”.

Regarding `COC(=O)C1=C(C)NC(C)=C(C(=O)OC)C1c1ccccc1[N+](=O)[O-]` [nifedipine], the “GtHα mRNA expression” value is 77.477 % Ctrl in [1] (setting [9]) and 72.5728 % Ctrl in [1] (sheet prrp2, block r17-22, PrRP2 1 μM, 2-APB 100 μM, nifedipine 10 μM, 24 h, mean). The “LHβ mRNA expression” value in experiment [2] (setting [11]) is 48.7223 % Ctrl; in [2] (setting [12]), 48.7223 % Ctrl; in experiment [2] (sheet prrp2, block r18-23, PrRP2 1 μM, 2-APB 100 μM, nifedipine 10 μM, 24 h, mean) it was 48.7223 % Ctrl. For the same compound, the “effect” value in experiment [3] (setting [8]) was “could also block PrRPs-induced LH secretion and mRNA expression”.

For orientation: EC50 means the concentration that produces a half-maximal response. For the compound DPNIDAVWYKGRGIRPVGRF-NH2 [PrRP2], the EC50 at PrRP-R1b is 615 nM; at PrRP-R1a, 3160 nM; on hPrRPR (setting [16]) it was 52.4 nM; at PrRP-R2a, 78.9 nM.

SPEIDPFWYVGRGVRPIGRF-NH2 [PrRP1]: the EC50 on PrRP-R1b is 192 nM; on PrRP-R1a, 85.3 nM; at hPrRPR, 182 nM; at PrRP-R2a it was 720 nM.

Consider TPDINPAWYASRGIRPVGRF-NH2 [hPrRP], for which the EC50 came out at 2180 nM on PrRP-R1b, 1110 nM at PrRP-R1a, 191 nM at hPrRPR (setting [16]) and 940 nM on PrRP-R2a.
